≈ marks a conversion by molar mass, not a printed value. Where two headings read alike, the source gives them in different places.
Legend:
Type in all cases: cell-based
HIV-1/100-Ile = assay: Inhibition of HIV-1 induced syncytium formation in CEM cells, RT mutant 100-Ile; conditions: Human immunodeficiency virus 1, CCRF-CEM, 96 h
Excerpt: (§1) CEM cells were obtained from the American Tissue Cell Culture Collection (Rockville, Md.). HIV-1(IIIB) was originally obtained from the culture supernatant of persistently HIV-1-infected H9 cells and was provided by R. C. Gallo and M. Popovic (National Cancer Institute, National Institutes of Health, Bethesda, Md.). […] 67: 5353-5359 (1993); HIV-1/Lys-138 ("Lys-138") was selected for resistance against TSAO-m^3T as described in Balzarini et al, Virology 192: 246-253 (1993) and Balzarini et al, Proc. Nat. Acad. Sci. USA 90: 6952-6956 (1993); HIV-1/181-Cys ("181-Cys") was selected for resistance against pyridinone L-697,661 as described in Balzarini et al, Virology 192: 246-253 (1993); and HIV-1/188-His ("188-His") was selected for resistance against HEPT as described in Balzarini et al, Mol. Pharmocol. 44: 694-701 (1993). 188-His was then further converted to HIV-1/188-Leu "188-Leu") upon further passage in cell culture in the absence of the HEPT.
(§2) CEM cells were suspended at ≈300,000 cells per ml of culture medium and infected with approximately 100 CCID50 (CCID50 being the 50% cell culture infective dose) of HIV-1(IIIB) or one of the HIV-1 RT mutant strains described above. Then 100 μl of the infected cell suspensions was added to 200 μl microtiter plate wells containing 100 μl of appropriate serial (5-fold) dilutions of the test compounds. The inhibitory effect of the test compounds on HIV-1 induced syncytium formation in CEM cells was examined microscopically on day 4 post infection.

HIV-1/106-Ala = assay: Inhibition of HIV-1 induced syncytium formation in CEM cells, RT mutant 106-Ala; conditions: Human immunodeficiency virus 1, CCRF-CEM, 96 h
Excerpt: as §1, §2

HIV-1/Lys-138 = assay: Inhibition of HIV-1 induced syncytium formation in CEM cells, RT mutant 138-Lys; conditions: Human immunodeficiency virus 1, CCRF-CEM, 96 h
Excerpt: as §1, §2

in vitro = conditions: human, cem cells, CC50 (50% cytostatic concentration), Table 2B; CEM cell proliferation; averages of 2 to 3 independent experiments
Excerpt: as §1
^b 50% cytostatic concentration (i.e., compound concentration require
to inhibit CEM cell proliferation by 50%)

HIV-1(IIIB) = assay: Inhibition of HIV-1 induced syncytium formation in CEM cells, wild type; conditions: Human immunodeficiency virus 1, IIIB, CCRF-CEM, 96 h, Table 2B, WT = HIV-1(IIIB), day 4, averages of 2 to 3 independent experiments, read-out: Antiviral Activity of Comparative Compounds EC50, WT
Excerpt: as §1, §2

HIV-1/181-Cys = assay: Inhibition of HIV-1 induced syncytium formation in CEM cells, RT mutant 181-Cys; conditions: Human immunodeficiency virus 1, CCRF-CEM, 96 h
Excerpt: as §1, §2

[1] = Table 2B, day 4, averages of 2 to 3 independent experiments, read-out: Antiviral Activity of Comparative Compounds EC50, 100-Ile
[2] = Table 2B, day 4, averages of 2 to 3 independent experiments, read-out: Antiviral Activity of Comparative Compounds EC50, 106-Ala
[3] = Table 2B, day 4, averages of 2 to 3 independent experiments, read-out: Antiviral Activity of Comparative Compounds EC50, 138-Lys
[4] = Table 2B, day 4, averages of 2 to 3 independent experiments, read-out: Antiviral Activity of Comparative Compounds EC50, 181-Cys

| Structure (SMILES) | EC50 (HIV-1/100-Ile; [1]) [µg/mL] | EC50 (HIV-1/106-Ala; [2]) [µg/mL] | EC50 (HIV-1/Lys-138; [3]) [µg/mL] | CC50 (in vitro) [µg/mL] | EC50 (HIV-1(IIIB)) [µg/mL] | EC50 (HIV-1/181-Cys; [4]) [µg/mL] | EC50 (HIV-1/100-Ile; read-out: Antiviral Activity of Comparative Compounds EC50, 100-Ile, Table 2B, day 4, averages of 2 to 3 independent experiments) [µg/mL] | EC50 (HIV-1/106-Ala; read-out: Antiviral Activity of Comparative Compounds EC50, 106-Ala, Table 2B, day 4, averages of 2 to 3 independent experiments) [µg/mL] | EC50 (HIV-1/Lys-138; read-out: Antiviral Activity of Comparative Compounds EC50, 138-Lys, Table 2B, day 4, averages of 2 to 3 independent experiments) [µg/mL] | EC50 (HIV-1/181-Cys; read-out: Antiviral Activity of Comparative Compounds EC50, 181-Cys, Table 2B, day 4, averages of 2 to 3 independent experiments) [µg/mL] |
| --- | --- | --- | --- | --- | --- | --- | --- | --- | --- | --- |
| CC(C)OC(=O)c1cc(NC(=S)c2ccco2)ccc1Cl [Compound 86] | 5 (≈ 15.4 µM) | 5 (≈ 15.4 µM) | 4 (≈ 12.4 µM) | 7.4 (≈ 22.9 µM) | 0.1 (≈ 0.309 µM) | 5 (≈ 15.4 µM) |  |  |  |  |
| Cc1ccoc1C(=S)Nc1ccc(Cl)c(C(=O)OC(C)C)c1 [Compound 87] | 3 (≈ 8.88 µM) | 1 (≈ 2.96 µM) | 0.55 (≈ 1.63 µM) | 15 (≈ 44.4 µM) | 0.02 (≈ 0.0592 µM) | 0.53 (≈ 1.57 µM) |  |  |  |  |
| Cc1ccsc1C(=S)Nc1ccc(Cl)c(C(=O)OC(C)C)c1 [Compound 88] | 0.7 (≈ 1.98 µM) | 0.6 (≈ 1.7 µM) | 0.3 (≈ 0.848 µM) | 5.2 (≈ 14.7 µM) | 0.01 (≈ 0.0283 µM) | 0.27 (≈ 0.763 µM) |  |  |  |  |
| CC(C)OC(=O)c1cc(NC(=S)c2cccs2)ccc1Cl [Compound 89] | 3 (≈ 8.83 µM) | 4 (≈ 11.8 µM) | 1.9 (≈ 5.59 µM) | 4.9 (≈ 14.4 µM) | 0.09 (≈ 0.265 µM) | 4 (≈ 11.8 µM) |  |  |  |  |
| COc1ccccc1C(=S)Nc1ccc(Cl)c(C(=O)OC(C)C)c1 [Compound 90] | 3.5 (≈ 9.62 µM) | 6 (≈ 16.5 µM) | 0.7 (≈ 1.92 µM) | 27 (≈ 74.2 µM) | 0.19 (≈ 0.522 µM) | 5.5 (≈ 15.1 µM) |  |  |  |  |
| Cc1ccccc1C(=S)Nc1ccc(Cl)c(C(=O)OC(C)C)c1 [Compound 91] | 4.5 (≈ 12.9 µM) | 8.5 (≈ 24.4 µM) | 5 (≈ 14.4 µM) | 5.8 (≈ 16.7 µM) | 0.45 (≈ 1.29 µM) | 7.5 (≈ 21.6 µM) |  |  |  |  |
| CC(C)OC(=O)c1cc(NC(=S)c2ccsc2)ccc1Cl [Compound 92] | 0.4 (≈ 1.18 µM) | 0.75 (≈ 2.21 µM) | 0.5 (≈ 1.47 µM) | 4.3 (≈ 12.7 µM) | 0.02 (≈ 0.0588 µM) | 0.37 (≈ 1.09 µM) |  |  |  |  |
| CC(C)(C)ON=Cc1cc(NC(=S)c2ccccc2)ccc1Cl [Compound 93] | 2 (≈ 5.77 µM) | 0.1 (≈ 0.288 µM) | 0.08 (≈ 0.231 µM) | 9.7 (≈ 28 µM) | 0.03 (≈ 0.0865 µM) | 0.7 (≈ 2.02 µM) |  |  |  |  |
| Cc1ccoc1C(=S)Nc1ccc(Cl)c(C=NOC(C)C)c1 [Compound 94] | 0.75 (≈ 2.23 µM) | 0.5 (≈ 1.48 µM) | 0.15 (≈ 0.445 µM) | 3.1 (≈ 9.2 µM) | 0.01 (≈ 0.0297 µM) | 0.6 (≈ 1.78 µM) |  |  |  |  |
| Cc1ccsc1C(=S)Nc1ccc(Cl)c(C=NOC(C)C)c1 [Compound 95] | 0.65 (≈ 1.84 µM) | 0.08 (≈ 0.227 µM) | 0.16 (≈ 0.453 µM) | 13 (≈ 36.8 µM) | 0.008 (≈ 0.0227 µM) | 0.5 (≈ 1.42 µM) |  |  |  |  |
| CC(C)ON=Cc1cc(NC(=S)c2ccccc2)ccc1Cl [Compound 96] | > 1 | 0.75 (≈ 2.25 µM) | 0.17 (≈ 0.511 µM) | 9 (≈ 27 µM) | 0.05 (≈ 0.15 µM) | > 1 |  |  |  |  |
| Cc1occc1C(=S)Nc1ccc(Cl)c(C=NOC(C)C)c1 [Compound 97] | 3.5 (≈ 10.4 µM) | ≥ 4 | 2 (≈ 5.94 µM) | 3.3 (≈ 9.8 µM) | 0.009 (≈ 0.0267 µM) | 3.3 (≈ 9.8 µM) |  |  |  |  |
| CC(C)C(OC(=O)c1cc(NC(=S)c2ccccc2F)ccc1Cl)C(C)C [Compound 98] | > 1 | 0.85 (≈ 2.08 µM) | 0.7 (≈ 1.72 µM) | 7.5 (≈ 18.4 µM) | 0.06 (≈ 0.147 µM) | > 1 |  |  |  |  |
| CC(C)C(OC(=O)c1cc(NC(=S)c2ccc[nH]2)ccc1Cl)C(C)C [Compound 99] |  |  |  | > 100 | 0.1 (≈ 0.264 µM) |  | > 1 | > 10 | > 10 | > 10 |
| CC(C)C(OC(=O)c1cc(NC(=S)c2cccn2C)ccc1Cl)C(C)C [Compound 100] | 4 (≈ 10.2 µM) | 0.8 (≈ 2.04 µM) | 0.4 (≈ 1.02 µM) | > 100 | 0.03 (≈ 0.0763 µM) | 0.65 (≈ 1.65 µM) |  |  |  |  |
